Source: patent US7419969B2 (Bristol-Myers Squibb Company, priority 2004, dated 2008)

How the values were obtained:
HIV-integrase = target: T1, HIV-integrase (Human immunodeficiency virus type 1 group M subtype B, UniProt P04585); assay: in-vitro activity against HIV-integrase (HIV Integrase Inhibition, SPA bead assay); type: biochemical; details: Table 1a; recombinant integrase, activity class
T1 construct: Recombinant integrase (0.26 ng) was incubated with the beads
Summary of the method: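 Recombinant integrase (0.26 ng) pre-bound for 90 min at 37 °C to biotinylated substrate DNA on streptavidin SPA beads, then washed. Inhibitors added with 33P-labelled target DNA; reaction stopped with 10 mM EDTA. Scintillation CPM taken as integration signal.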

Row | SMILES | IC50 (HIV-integrase) | melting point
1 | CNC(=O)c1cc(F)ccc1CNC(=O)c1nc2n(c(=O)c1O)CCCOC21CCOCC1 [Example 115, Spiro[4H-pyran-4,10′(4′H)-[6H]pyrimido[2,1-c][1,4]oxazepine]-2′-carboxamide, N-[[4-fluoro-2-[(methylamino)carbonyl]phenyl]methyl]-2,3,5,6,7′,8′-hexahydro-3′-hydroxy-4′-oxo-] | 1 to 10 nM | 211 °C (dec.)
2 | CS(=O)(=O)c1cc(F)ccc1CNC(=O)c1nc2n(c(=O)c1O)CCCOC21CCOCC1 [Example 116, Spiro[4H-pyran-4,10′(4′H)-[6H]pyrimido[2,1-c][1,4]oxazepine]-2′-carboxamide, N-[[4-fluoro-2-(methylsulfonyl)phenyl]methyl]-2,3,5,6,7′,8′-hexahydro-3′-hydroxy-4′-oxo-] | 10 to 100 nM | 257 °C (dec.)
3 | COP(=O)(OC)c1cc(F)ccc1CNC(=O)c1nc2n(c(=O)c1O)CCCOC21CCOCC1 [Example 117, Phosphonic acid, [5-fluoro-2-[[[(2,3,5,6,7′,8′-hexahydro-3′-hydroxy-4′-oxospiro[4H-pyran-4,10′(4′H) -[6H]pyrimido[2,1-c][1,4]oxazepin]-2′-yl)carbonyl]amino]methyl]phenyl]-, dimethyl ester] | 10 to 100 nM | 234 °C (dec.)
4 | O=C(NCc1ccc(F)cc1-n1cncn1)c1nc2n(c(=O)c1O)CCCOC21CCOCC1 [Example 118, Spiro[4H-pyran-4,10′(4′H)-[6H]pyrimido[2,1-c][1,4]oxazepine]-2′-carboxamide, N-[[4-fluoro-2-(1H-1,2,4-triazol-1-yl)phenyl]methyl]-2,3,5,6,7′,8′-hexahydro-3′-hydroxy-4′-oxo-] | 1 to 10 nM | 247 °C (dec.)
5 | Cc1ncn(-c2cc(F)ccc2CNC(=O)c2nc3n(c(=O)c2O)CCCOC32CCOCC2)n1 [Example 119, Spiro[4H-pyran-4,10′(4′H)-[6H]pyrimido[2,1-c][1,4]oxazepine]-2′-carboxamide, N-[[4-fluoro-2-(3-methyl-1H-1,2,4-triazol-1-yl)phenyl]methyl]-2,3,5,6,7′,8′-hexahydro-3′-hydroxy-4′-oxo-] | 1 to 10 nM | 240 °C (dec.)
6 | Cc1ncnn1-c1cc(F)ccc1CNC(=O)c1nc2n(c(=O)c1O)CCCOC21CCOCC1 [Example 120, Spiro[4H-pyran-4,10′(4′H)-[6H]pyrimido[2,1-c][1,4]oxazepine]-2′-carboxamide, N-[[4-fluoro-2-(5-methyl-1H-1,2,4-triazol-1-yl)phenyl]methyl]-2,3,5,6,7′,8′-hexahydro-3′-hydroxy-4′-oxo-] | 10 to 100 nM | 204 °C
7 | Cc1ncn(-c2ccccc2CNC(=O)c2nc3n(c(=O)c2O)CCCOC32CCOCC2)n1 [Example 121, Spiro[4H-pyran-4,10′(4′H)-[6H]pyrimido[2,1-c][1,4]oxazepine]-2′-carboxamide, 2,3,5,6,7,8′-hexahydro-3′-hydroxy-N-[[2-(3-methyl-1H-1,2,4-triazol-1-yl)phenyl]methyl]-4′-oxo-] | 10 to 100 nM | 247 °C (dec.)
8 | O=C(NCc1ccc(F)cc1-n1ccnn1)c1nc2n(c(=O)c1O)CCCOC21CCOCC1 [Example 122, Spiro[4H-pyran-4,10′(4′H)-[6H]pyrimido[2,1-c][1,4]oxazepine]-2′-carboxamide, N-[[4-fluoro-2-(1H-1,2,3-triazol-1-yl)phenyl]methyl]-2,3,5,6,7′,8′-hexahydro-3′-hydroxy-4′-oxo-] | 1 to 10 nM | 239 °C (dec.)
9 | Cc1nc(C)n(-c2cc(F)ccc2CNC(=O)c2nc3n(c(=O)c2O)CCOC32CCC2)n1 [Example 127, Spiro[cyclobutane-1,9′(4′H)-pyrimido[2,1-c][1,4]oxazine]-2′-carboxamide, N-[[2-(3,5-dimethyl-1H-1,2,4-triazol-1-yl)-4-fluorophenyl]methyl]-6′,7′-dihydro-3′-hydroxy-4′-oxo-] | 10 to 100 nM | 
10 | Cc1nc(C)n(-c2cc(F)ccc2CNC(=O)c2nc3n(c(=O)c2O)CCCOC32CCC2)n1 [Example 128, Spiro[cyclobutane-1,10′(4′H)-[6H]pyrimido[2,1-c][1,4]oxazepine]-2′-carboxamide, N-[[2-(3,5-dimethyl-1H-1,2,4-triazol-1-yl)-4-fluorophenyl]methyl]-7′,8′-dihydro-3′-hydroxy-4′-oxo-] | 10 to 100 nM | 
11 | Cc1ncn(-c2cc(F)ccc2CNC(=O)c2nc3n(c(=O)c2O)CCOC32CCCC2)n1 [Example 129, Spiro[cyclopentane-1,9′(4′H)-pyrimido[2,1-c][1,4]oxazine]-2′-carboxamide, N-[[4-fluoro-2-(3-methyl-1H-1,2,4-triazol-1-yl)phenyl]methyl]-6′,7′-dihydro-3′-hydroxy-4′-oxo-] | 1 to 10 nM | 
12 | Cc1nc(C)n(-c2cc(F)ccc2CNC(=O)c2nc3n(c(=O)c2O)CCOC32CCCC2)n1 [Example 130, Spiro[cyclopentane-1,9′(4′H)-pyrimido[2,1-c][1,4]oxazine]-2′-carboxamide, N-[[2-(3,5-dimethyl-1H-1,2,4-triazol-1-yl)-4-fluorophenyl]methyl]-6′,7′-dihydro-3′-hydroxy-4′-oxo-] | 1 to 10 nM | 
13 | O=C(NCc1ccc(F)cc1-n1cncn1)c1nc2n(c(=O)c1O)CCNC21CCC1 [Example 131] | 1 to 10 nM | 
14 | O=C(NCc1ccc(F)cc1)c1nc2n(c(=O)c1O)CCNC21CCC1 [Example 132, Spiro[cyclobutane-1,9′(6′H)-[4H]pyrazino[1,2-a]pyrimidine]-2′-carboxamide, N-[(4-fluorophenyl)methyl]-7′,8′-dihydro-3′-hydroxy-4′-oxo-] | 1 to 10 nM | 
